# Tests used:
# [1] = molecular target: recombinant human Mcl-1 (residues 171-327) / Bim interaction (Homo sapiens (Human), UniProt Q07820); test: biochemical; assay type: binding; settings: 0.1 nM Mcl-1(171-327), 0.05 nM biotin-Bim (51-76); read-out: Mcl-1 HTRF IC50
# [2] = system: human multiple myeloma cell line, OPM-2; test: Cell viability assay (OPM-2 10 FBS), CellTiter-Glo; assay type: cell-based; settings: Homo sapiens, OPM-2, 16 h, read-out: OPM-2 10% FBS IC50 IP, OPM-2 cells, 10% FBS, 16 h incubation
# Procedure, shortened: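 Serially diluted test compounds are incubated 16 h with cells (3000/well) in RPMI 1640 supplemented with 10% FBS. Viability is then measured by luminescence and IC50 calculated by 4-parameter logistic fit.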
# recombinant human Mcl-1 (residues 171-327) / Bim interaction, sequence (Q07820 171-327): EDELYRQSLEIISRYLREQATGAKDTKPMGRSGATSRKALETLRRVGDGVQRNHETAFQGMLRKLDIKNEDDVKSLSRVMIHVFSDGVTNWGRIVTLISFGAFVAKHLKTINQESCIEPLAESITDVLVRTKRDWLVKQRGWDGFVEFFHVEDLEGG
SMILES,IC50 [1] [nM],IC50 [2] [nM]
"CCCN1CCN(C[C@@]2(OCC)/C=C/C[C@H](C)[C@@H](C)S(=O)(=O)NC(=O)c3ccc4c(c3)N(C[C@@H]3CC[C@H]32)C[C@@]2(CCCc3cc(Cl)ccc32)CO4)CC1 [Example 98, (1S,3′R,6′R,7′R,8′E,11′S,12′R)-6-chloro-7′-ethoxy-11′,12′-dimethyl-7′-((4-propyl-1-piperazinyl)methyl)-3,4-dihydro-2H,15′H-spiro[naphthalene-1,22′-[20]oxa[13]thia[1,14]diazatetracyclo [14.7.2.0~3,6~.0~19,24~]pentacosa[8,16,18,24]tetraen]-15′-one 13′,13′-dioxide]",0.373,183
"CCO[C@@]1(CN2CCN3CCOC[C@@H]3C2)/C=C/C[C@H](C)[C@@H](C)S(=O)(=O)NC(=O)c2ccc3c(c2)N(C[C@@H]2CC[C@H]21)C[C@@]1(CCCc2cc(Cl)ccc21)CO3 [Example 101, (1S,3′R,6′R,7′S,8′E,11′S,12′R)-6-chloro-7′-ethoxy-7′-((9aS)-hexahydropyrazino[2,1-c][1,4]oxazin-8(1H)-ylmethyl)-11′,12′-dimethyl-3,4-dihydro-2H,15′H-spiro[naphthalene-1,22′-[20]oxa[13]thia[1,14]diazatetracyclo [14.7.2.0~3,6~.0~19,24~]pentacosa[8,16,18,24]tetraen]-15′-one 13′,13′-dioxide]",0.196,263
"CCO[C@@]1(CN2CCN(C3COC3)CC2)/C=C/C[C@H](C)[C@@H](C)S(=O)(=O)NC(=O)c2ccc3c(c2)N(C[C@@H]2CC[C@H]21)C[C@@]1(CCCc2cc(Cl)ccc21)CO3 [Example 106, (1S,3′R,6′R,7′S,8′E,11′S,12′R)-6-chloro-7′-ethoxy-11′12′-dimethyl-7′-((4-(3-oxetanyl)-1-piperazinyl)methyl)-3,4-dihydro-2H,15′H-spiro[naphthalene-1,22′-[20]oxa[13]thia[1,14]diazatetracyclo [14.7.2.0~3,6~.0~19,24~]pentacosa[8,16,18,24]tetraen]-15′-one 13′,13′-dioxide]",0.299,308
"CCO[C@@]1(CN2CCN3CCCC[C@@H]3C2)/C=C/C[C@H](C)[C@@H](C)S(=O)(=O)NC(=O)c2ccc3c(c2)N(C[C@@H]2CC[C@H]21)C[C@@]1(CCCc2cc(Cl)ccc21)CO3 [Example 107, (1S,3′R,6′R,7′S,8′E,11′S,12′R)-6-chloro-7′-ethoxy-11′,12′-dimethyl-7′-((9aR)-octahydro-2H-pyrido[1,2-a]pyrazin-2-ylmethyl)-3,4-dihydro-2H,15′H-spiro[naphthalene-1,22′-[20]oxa[13]thia[1,14]diazatetracyclo [14.7.2.0~3,6~.0~19,24~]pentacosa[8,16,18,24]tetraen]-15′-one 13′,13′-dioxide]",1.14,872
"CCO[C@]1(CN2CCN3CCCC[C@@H]3C2)/C=C/C[C@H](C)[C@@H](C)S(=O)(=O)NC(=O)c2ccc3c(c2)N(C[C@@H]2CC[C@H]21)C[C@@]1(CCCc2cc(Cl)ccc21)CO3 [Example 108, (1S,3′R,6′R,7′R,8′E,11′S,12′R)-6-chloro-7′-ethoxy-11′,12′-dimethyl-7′-((9aR)-octahydro-2H-pyrido[1,2-a]pyrazin-2-ylmethyl)-3 ,4-dihydro-2H,15′H-spiro[naphthalene-1,22′-[20]oxa[13]thia[1,14]diazatetracyclo [14.7.2.0~3,6~.0~19,24~]pentacosa[8,16,18,24]tetraen]-15′-one 13′,13′-dioxide]",0.198,116
"CCO[C@@]1(CN2CCC3(CC2)COC3)/C=C/C[C@H](C)[C@@H](C)S(=O)(=O)NC(=O)c2ccc3c(c2)N(C[C@@H]2CC[C@H]21)C[C@@]1(CCCc2cc(Cl)ccc21)CO3 [Example 109, (1S,3′R,6′R,7′S,8′E,11′S,12′R)-6-chloro-7′-ethoxy-11′,12′-dimethyl-7′-(2-oxa-7-azaspiro[3,5]non-7-ylmethyl)-3,4-dihydro-2H,15′H-spiro[naphthalene-1,22′-[20]oxa[13]thia[1,14]diazatetracyclo [14.7.2.0~3,6~.0~19,24~]pentacosa[8,16,18,24]tetraen]-15′-one 13′,13′-dioxide]",1.04,916
"CCO[C@@]1(CN2CCC(N(C)C)CC2)/C=C/C[C@H](C)[C@@H](C)S(=O)(=O)NC(=O)c2ccc3c(c2)N(C[C@@H]2CC[C@H]21)C[C@@]1(CCCc2cc(Cl)ccc21)CO3 [Example 110, (1S,3′R,6′R,7′S,8′E,11′S,12′R)-6-chloro-7′-((4-(dimethylamino)-1-piperidinyl)methyl)-7′-ethoxy-11′,12′-dimethyl-3,4-dihydro-2H,15′H-spiro[naphthalene-1,22′-[20]oxa[13]thia[1,14]diazatetracyclo [14.7.2.0~3,6~.0~19,24~]pentacosa[8,16,18,24]tetraen]-15′-one 13′,13′-dioxide]",0.505,1720
"CCO[C@@]1(CN2CCN(C(COC)COC)CC2)/C=C/C[C@H](C)[C@@H](C)S(=O)(=O)NC(=O)c2ccc3c(c2)N(C[C@@H]2CC[C@H]21)C[C@@]1(CCCc2cc(Cl)ccc21)CO3 [Example 111, (1S,3′R,6′R,7′S,8′E,11′S,12′R)-6-chloro-7′-ethoxy-7′-((4-(2-methoxy-1-(methoxymethyl)ethyl)-1-piperazinyl)methyl)-11′,12′-dimethyl-3,4-dihydro-2H,15′H-spiro[naphthalene-1,22′-[20]oxa[13]thia[1,14]diazatetracyclo [14.7.2.0~3,6~.0~19,24~]pentacosa[8,16,18,24]tetraen]-15′-one 13′,13′-dioxide]",0.362,301
"CCO[C@@]1(CN2CCN(CC)CC2)/C=C/C[C@H](C)[C@@H](C)S(=O)(=O)NC(=O)c2ccc3c(c2)N(C[C@@H]2CC[C@H]21)C[C@@]1(CCCc2cc(Cl)ccc21)CO3 [Example 112, (1S,3′R,6′R,7′S,8′E,11′S,12′R)-6-chloro-7′-ethoxy-7′-((4-ethyl-1-piperazinyl)methyl)-11′,12′-dimethyl-3,4-dihydro-2H,15′H-spiro[naphthalene-1,22′-[20]oxa[13]thia[1,14]diazatetracyclo [14.7.2.0~3,6~.0~19,24~]pentacosa[8,16,18,24]tetraen]-15′-one 13′,13′-dioxide]",0.617,654
"CCO[C@@]1(CN2CCC(OC)CC2)/C=C/C[C@H](C)[C@@H](C)S(=O)(=O)NC(=O)c2ccc3c(c2)N(C[C@@H]2CC[C@H]21)C[C@@]1(CCCc2cc(Cl)ccc21)CO3 [Example 113, (1S,3′R,6′R,7′S,8′E,11′S,12′R)-6-chloro-7′-ethoxy-7′-((4-methoxy-1-piperidinyl)methyl)-11′,12′-dimethyl-3,4-dihydro-2H,15′H-spiro[naphthalene-1,22′-[20]oxa[13]thia[1,14]diazatetracyclo [14.7.2.0~3,6~.0~19,24~]pentacosa[8,16,18,24]tetraen]-15′-one 13′,13′-dioxide]",1.19,1330
"CCO[C@]1(CN2CCN(C(C)C)CC2)/C=C/C[C@H](C)[C@@H](C)S(=O)(=O)NC(=O)c2ccc3c(c2)N(C[C@@H]2CC[C@H]21)C[C@@]1(CCCc2cc(Cl)ccc21)CO3 [Example 114, (1S,3′R,6′R,7′R,8′E,11′S,12′R)-6-chloro-7′-ethoxy-11′,12′-dimethyl-7′-((4-(1-methylethyl)-1-piperazinyl)methyl)-3,4-dihydro-2H,15′H-spiro[naphthalene-1,22′-[20]oxa[13]thia[1,14]diazatetracyclo [14.7.2.0~3,6~.0~19,24~]pentacosa[8,16,18,24]tetraen]-15′-one 13′,13′-dioxide]",0.104,68
